Target: Programmed cell death 1 ligand/protein 1 (Homo sapiens, UniProt Q9NZQ7+Q15116)
Experiment: PD-1/PD-L1 Binding Assay (Alphascreen)
Method: The assays were conducted in a standard black 384-well polystyrene plate with a final volume of 20 μL. Inhibitors were first serially diluted in DMSO and then added to the plate wells before the addition of other reaction components. The final concentration of DMSO in the assay was […]. Add 100 nL/well of compound to the 384 reaction plate (6008280, PerkinElmer) with Echo and centrifuge at 1000 rpm for 1 minute. Add 5 μL/well 4×PD-L1 solutions to the 384 reaction plate, centrifuge at 1000 rpm for 1 minute, and add 5 μL/well 4×PD-1 solutions, centrifuge at 1000 rpm for 1 minute, and incubate at 25° C. for 15 minutes. The concentrations of the compounds were 300, 100, 33.33, 11.11, 3.70, 1.23, 0.41, 0.137, 0.046, 0.015, 0 nM, respectively. Add 10 μL/well 2× Anti-6×His AlphaLISA Acceptor beads and Streptavidin Donor beads solution (PerkinElmer-AL356F) to the above 384 reaction plate, centrifuge at 1000 rpm for 1 minute, and incubate at 25° C. in the dark for 120 minutes. Read the AlphaLISA signal value using the Envision Reader. IC50 determination was performed by fitting the curve of percent control activity versus the log of the inhibitor concentration using the GraphPad Prism 8.0 software.

Chain of Programmed cell death 1 ligand/protein 1 (Q9NZQ7 whole entry): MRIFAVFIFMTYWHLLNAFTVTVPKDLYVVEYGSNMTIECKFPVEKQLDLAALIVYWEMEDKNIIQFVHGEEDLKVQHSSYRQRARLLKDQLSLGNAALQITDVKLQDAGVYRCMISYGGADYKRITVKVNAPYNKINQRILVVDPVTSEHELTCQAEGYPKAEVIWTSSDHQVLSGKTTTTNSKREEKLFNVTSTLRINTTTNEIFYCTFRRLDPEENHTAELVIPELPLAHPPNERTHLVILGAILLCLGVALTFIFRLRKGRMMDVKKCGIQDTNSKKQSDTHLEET
Chain of Programmed cell death 1 ligand/protein 1 (Q15116 whole entry): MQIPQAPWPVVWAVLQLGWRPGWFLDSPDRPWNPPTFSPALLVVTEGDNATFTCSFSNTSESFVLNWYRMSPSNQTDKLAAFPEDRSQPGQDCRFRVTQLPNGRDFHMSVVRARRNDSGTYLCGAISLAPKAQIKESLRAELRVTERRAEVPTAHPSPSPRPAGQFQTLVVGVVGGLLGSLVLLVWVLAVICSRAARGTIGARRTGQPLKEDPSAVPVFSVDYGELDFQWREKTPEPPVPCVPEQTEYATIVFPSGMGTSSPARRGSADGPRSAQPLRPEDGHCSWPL

| Structure (SMILES) | IC50 [nM] |
| --- | --- |
| Cc1c(C2=NC3C=C(CN4CCC4(C)N)C(OC(F)F)=CC3O2)cccc1-c1cccc(-c2nc3cc(CN4CCC[C@H]4C(=O)O)c(OC(F)F)cc3o2)c1C (some centres not stated) [US12187713, Example 40] | 2.5 |
| CCCNCCCN(C)CC1=CC2N=C(c3cccc(-c4cccc(-c5nc6cc(CN7CCC[C@H]7C(=O)O)c(OC(F)F)cc6o5)c4C)c3C)OC2C=C1OC(F)F (some centres not stated) [US12187713, Example 53] | 2.5 |

Source: BindingDB's records for patent US12187713 (Betta Pharmaceuticals, 2025)
